Source: paper PMC8918994, “Characterization of the Trimethylamine N-Oxide Transporter From Pelagibacter Strain HTCC1062 Reveals Its Oligotrophic Niche Adaption” (Frontiers in Microbiology, 2022)

Key:
Assay in all cases: isothermal titration calorimetry
Format in all cases: binding
TmoX1062 [1] = target: T1, TmoX1062 (Candidatus Pelagibacter communis, UniProt Q4FL33)
T1 construct: gene tmoX
T1 sequence (Q4FL33 25-314): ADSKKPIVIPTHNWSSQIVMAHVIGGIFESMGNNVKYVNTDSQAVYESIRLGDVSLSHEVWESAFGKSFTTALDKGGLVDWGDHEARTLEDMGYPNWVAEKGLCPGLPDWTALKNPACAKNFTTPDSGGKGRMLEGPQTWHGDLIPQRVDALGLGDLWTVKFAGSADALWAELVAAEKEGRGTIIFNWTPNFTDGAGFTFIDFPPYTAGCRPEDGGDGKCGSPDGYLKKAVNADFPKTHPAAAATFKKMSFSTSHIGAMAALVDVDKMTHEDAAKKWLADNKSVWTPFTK
Description: isothermal titration calorimetry on TmoX1062

TmoX1062 [2] = target: T2, TmoX1062 (Candidatus Pelagibacter communis, UniProt Q4FL33, W85A); settings: 10 mM Tris-HCl pH 8.0, 100 mM NaCl
T2 construct: gene tmoX
T2 sequence (Q4FL33 25-314 W85A): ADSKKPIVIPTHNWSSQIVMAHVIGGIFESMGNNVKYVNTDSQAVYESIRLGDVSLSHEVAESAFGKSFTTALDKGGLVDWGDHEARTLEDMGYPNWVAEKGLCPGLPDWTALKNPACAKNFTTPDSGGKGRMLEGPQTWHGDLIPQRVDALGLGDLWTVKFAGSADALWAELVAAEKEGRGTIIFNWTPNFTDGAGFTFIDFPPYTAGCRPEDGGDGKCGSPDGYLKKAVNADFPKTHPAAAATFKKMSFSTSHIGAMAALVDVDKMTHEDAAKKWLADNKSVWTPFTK

TmoX1062 [3] = target: T3, TmoX1062 (Candidatus Pelagibacter communis, UniProt Q4FL33, W212A); settings: 10 mM Tris-HCl pH 8.0, 100 mM NaCl
T3 construct: gene tmoX
T3 sequence (Q4FL33 25-314 W212A): as the sequence (Q4FL33 25-314 W85A) above, with A61W, W188A counted along it

TmoX1062 [4] = target: T4, TmoX1062 (Candidatus Pelagibacter communis, UniProt Q4FL33, F89A); settings: 10 mM Tris-HCl pH 8.0, 100 mM NaCl
T4 construct: gene tmoX
T4 sequence (Q4FL33 25-314 F89A): as the sequence (Q4FL33 25-314 W85A) above, with A61W, F65A counted along it

TmoX1062 [5] = target: T5, TmoX1062 (Candidatus Pelagibacter communis, UniProt Q4FL33, F210A); settings: 10 mM Tris-HCl pH 8.0, 100 mM NaCl
T5 construct: gene tmoX
T5 sequence (Q4FL33 25-314 F210A): as the sequence (Q4FL33 25-314 W85A) above, with A61W, F186A counted along it

TmoX1062 [6] = target: T6, TmoX1062 (Candidatus Pelagibacter communis, UniProt Q4FL33, E114A); settings: 10 mM Tris-HCl pH 8.0, 100 mM NaCl
T6 construct: gene tmoX
T6 sequence (Q4FL33 25-314 E114A): as the sequence (Q4FL33 25-314 W85A) above, with A61W, E90A counted along it

TmoX1062 [7] = target: T7, TmoX1062 (Candidatus Pelagibacter communis, UniProt Q4FL33, W38A); settings: 10 mM Tris-HCl pH 8.0, 100 mM NaCl
T7 construct: gene tmoX
T7 sequence (Q4FL33 25-314 W38A): as the sequence (Q4FL33 25-314 W85A) above, with W14A, A61W counted along it

| SMILES | Kd (TmoX1062 [1]) [µM] | binding affinity relative to WT (100%) (TmoX1062 [2]) | binding affinity relative to WT (100%) (TmoX1062 [3]) | binding affinity relative to WT (100%) (TmoX1062 [4]) | binding affinity relative to WT (100%) (TmoX1062 [5]) | binding affinity relative to WT (100%) (TmoX1062 [6]) | binding affinity relative to WT (100%) (TmoX1062 [7]) |
| --- | --- | --- | --- | --- | --- | --- | --- |
| C[N+](C)(C)CCO [Choline] | 2.5 ± 0.33 |  |  |  |  |  |  |
| C[N+](C)(C)[O-] [TMAO] | 0.52 ± 0.12 | Mutations of Trp85, Phe89 and Trp212 to alanine severely deceased the binding affinity of TmoX1062 | Mutations of Trp85, Phe89 and Trp212 to alanine severely deceased the binding affinity of TmoX1062 | Mutations of Trp85, Phe89 and Trp212 to alanine severely deceased the binding affinity of TmoX1062 | mutants W38A and F210A still maintained a relatively high TMAO binding affinity | Mutation of Glu114 to alanine abolished the binding affinity of TmoX1062 toward TMAO | mutants W38A and F210A still maintained a relatively high TMAO binding affinity |
